Results taken from the supplement of paper PMC10307832.

Columns and labels:
Assay in all cases: relative viability (nuclei count vs DMSO), 5 days (fraction); higher = more cells survive
[1] = compound: CC1=C(CC(=O)O)c2cc(F)ccc2/C1=C\c1ccc([S+](C)[O-])cc1 [Sulindac] + C[C@@H](Oc1cc(-c2cnn(C3CCNCC3)c2)cnc1N)c1c(Cl)ccc(F)c1Cl [Crizotinib] (partner 1 µM)
Procedure, shortened: (§1)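 One day after seeding in 1536-well plates, lung cancer cell lines were dosed by pin tool. Dosing was either single-drug or a fixed anchor-drug dose plus five library-drug doses (not always all listed) in √10 steps. After 5 days, nuclei were stained in one fix-and-stain step and counted on 4× images, and relative viability is the nuclei count of treated wells over that of vehicle wells, given as the median of duplicate plates.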

[2] = compound: O=c1[nH]cc(F)c(=O)[nH]1 [5-Fluorouracil] + Cc1nc(Nc2ncc(C(=O)Nc3c(C)cccc3Cl)s2)cc(N2CCN(CCO)CC2)n1 [Dasatinib] (partner 0.075 µM)
Procedure, shortened: as §1

[3] = compound: O=c1[nH]cc(F)c(=O)[nH]1 [5-Fluorouracil] + Nc1nc2[nH]cc(CCc3ccc(C(=O)N[C@@H](CCC(=O)O)C(=O)O)cc3)c2c(=O)[nH]1 [Pemetrexed] (partner 0.2 µM)
Procedure, shortened: as §1

[4] = compound: O=c1[nH]cc(F)c(=O)[nH]1 [5-Fluorouracil] + CC(=O)c1c(C)c2cnc(Nc3ccc(N4CCNCC4)cn3)nc2n(C2CCCC2)c1=O [Palbociclib] (partner 0.5 µM)
Procedure, shortened: as §1

[5] = compound: O=c1[nH]cc(F)c(=O)[nH]1 [5-Fluorouracil] + COc1cccc2cc(-c3nc([C@H]4CC[C@H](C(=O)O)CC4)n4ncnc(N)c34)[nH]c12 [OSI-027] (partner 0.5 µM)
Procedure, shortened: as §1

UMC-11
relative viability ([1]; first compound 0.08 µM): 0.862
relative viability ([1]; first compound 0.253 µM): 0.525
relative viability ([1]; first compound 0.8 µM): 0.66
relative viability ([1]; first compound 2.53 µM): 0.578
relative viability ([1]; first compound 8 µM): 0.901
relative viability ([2]; first compound 0.02 µM): 0.52
relative viability ([2]; first compound 0.2 µM): 0.467
relative viability ([2]; first compound 0.6325 µM): 0.438
relative viability ([2]; first compound 2 µM): 0.358
relative viability ([3]; first compound 0.02 µM): 0.807
relative viability ([3]; first compound 0.2 µM): 0.563
relative viability ([3]; first compound 0.6325 µM): 0.508
relative viability ([4]; first compound 0.02 µM): 0.344
relative viability ([4]; first compound 0.2 µM): 0.364
relative viability ([4]; first compound 0.6325 µM): 0.309
relative viability ([5]; first compound 0.02 µM): 0.445
relative viability ([5]; first compound 0.2 µM): 0.477
relative viability ([5]; first compound 0.6325 µM): 0.406
relative viability ([5]; first compound 2 µM): 0.372
